Calls of active or inactive are those of the source. How the calls were made is not given here.
These compounds were tested against Peptidyl-prolyl cis-trans isomerase FKBP1A (Homo sapiens) (UniProt P62942) (assay: small-molecule binding to FKBP12 – biophysical, NMR detection (AID 608)). Details: purified FKBP12.
Peptidyl-prolyl cis-trans isomerase FKBP1A (Homo sapiens), sequence (P62942 whole entry, looked up): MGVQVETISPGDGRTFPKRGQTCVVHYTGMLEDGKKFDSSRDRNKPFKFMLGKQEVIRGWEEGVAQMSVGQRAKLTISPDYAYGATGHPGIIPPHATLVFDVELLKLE

Compound | Kd
Cc1nnc(N2CCN(c3ccccc3)CC2)[nH]c1=O | > 4 mM (inactive)
Cc1ccc(-c2ccc(OCC(=O)N3CCOCC3)cc2)cc1 | inactive
NC(=O)CSCc1ccc(Br)cc1 | > 4 mM (inactive)
COc1cccc(N2CCN(C(=O)c3cccnc3)CC2)c1 | > 4 mM (inactive)
O=c1c2ccccc2oc2ccc(O)cc12 | > 4 mM (inactive)
CC[C@H](/C=C/C(C)C1CCC2C3CCC4=CC(=O)CC[C@]4(C)C3CC[C@]12C)C(C)C (stereo partly specified) | > 4 mM (inactive)
COc1cc(O)c(C)c(O)c1 | > 4 mM (inactive)
COCC(=O)Nc1cc2c3c(c1)CCN3C(=O)CC2 | > 4 mM (inactive)
CCn1c(C)c(C(C)=O)c(N2CCOCC2)nc1=S | > 4 mM (inactive)
c1ccc(C[N+]23CCN(CC2)c2ccccc23)cc1 | > 4 mM (inactive)
Cc1n[nH]c(C)c1NC(=O)c1cccc(F)c1 | > 4 mM (inactive)
COc1c(-c2coc3cc4c(cc3c2=O)CC(O)C(C)(C)O4)ccc2c1C=CC(C)(C)O2 (stereo unspecified) | > 4 mM (inactive)
Cc1cc(C)nc(/N=C(/N)N2CCOCC2)n1 | > 4 mM (inactive)
COc1ccc(-c2coc3cc(O)ccc3c2=O)cc1 | > 4 mM (inactive)
CNC(=O)CC1Sc2ccccc2NC1=O (stereo unspecified) | > 4 mM (inactive)
CC1(c2ccncc2)NC(=O)NC1=O (stereo unspecified) | > 4 mM (inactive)
Cc1cc(C(=O)NCc2cccs2)c(C)o1 | > 4 mM (inactive)
c1cncc(C(N2CCOCC2)N2CCOCC2)c1 | > 4 mM (inactive)
CC[C@@]1(O)C(=O)OCc2c1cc1n(c2=O)Cc2cc3ccccc3nc2-1 | > 4 mM (inactive)
Cc1ccc(C(=O)n2cnnc2N)cc1C | > 4 mM (inactive)
C=C[C@@](C)(O)CCC1C(=C)C[C@H](O)C2C(C)(C)CCCC12C (stereo partly specified) | > 4 mM (inactive)

Compound | Kd
COc1cc(C)nc(N(CCO)CCO)n1 | > 4 mM (inactive)
COc1cc2c(cc1OC)C1Cc3ccc(OC)c(OC)c3CN1CC2 (stereo unspecified) | > 4 mM (inactive)
O=C(Nc1ccccc1)NC1CCS(=O)(=O)C1 (stereo unspecified) | > 4 mM (inactive)
COc1cc(-c2coc3cc(O[C@@H]4O[C@H](CO)[C@@H](O)[C@H](O)[C@H]4O)c(OC)c(O)c3c2=O)cc(O)c1OC | > 4 mM (inactive)
COc1ncccc1N | > 4 mM (inactive)
Cc1ccc(NS(=O)(=O)N2CCCCC2)cc1Cl | inactive
O=C(Nc1ccon1)c1ccccc1Cl | > 4 mM (inactive)
O=C(O)CSc1nc2ccccc2c(=O)[nH]1 | > 4 mM (inactive)
COc1c(C)c2c(c(O)c1C/C=C(\C)CCC(=O)O)C(=O)OC2 | > 4 mM (inactive)
NC(=O)CC1Nc2cccc3cccc(c23)NC1=O (stereo unspecified) | > 4 mM (inactive)
Cc1occc1C(=O)Nc1nnc(C(F)(F)F)s1 | > 4 mM (inactive)
O=C(O)c1ccc2ncccc2c1 | > 4 mM (inactive)
C[n+]1ccc(C(=O)[O-])cc1 | > 4 mM (inactive)
C[N+](C)(C)CC(O)CC(=O)O (stereo unspecified) | > 4 mM (inactive)
NC(=O)C1CCN(C(=O)c2ccccc2F)CC1 | > 4 mM (inactive)
Cc1nc(SCC#N)c2c3c(sc2n1)CCC3 | > 4 mM (inactive)
O=C(O)c1onc2ccccc12 | > 4 mM (inactive)
O=C(O)CCc1nc2ccccc2[nH]c1=O | > 4 mM (inactive)
CCOC(=O)c1cnc2cc(C)nn2c1C | > 4 mM (inactive)
Cc1ccccc1NC(=O)CSc1ccnc(=O)[nH]1 | > 4 mM (inactive)
CC(=O)Nc1cc(C(N)=O)cc(C(N)=O)c1 | > 4 mM (inactive)

Compound | Kd
COC(=O)Cc1cc(=O)n(-c2ccccc2)[nH]1 | > 4 mM (inactive)
O=C1CSC(=Nc2ccc(Cl)cc2)N1 | > 4 mM (inactive)
C=C(C)[C@@H]1[C@H]2OC(=O)[C@@H]1[C@]1(O)C[C@H]3O[C@]34C(=O)O[C@H]2[C@]14C | > 4 mM (inactive)
NC(=O)c1ccsc1NC(=O)c1ccccc1[N+](=O)[O-] | > 4 mM (inactive)
Cc1cc(NC(=O)c2cc(C)on2)no1 | > 4 mM (inactive)
CCc1nnsc1C(=O)Nc1nccs1 | > 4 mM (inactive)
Cc1ccccc1N1CCN(C(=O)C2CCCCC2)CC1 | > 4 mM (inactive)
Cn1nc(C(=O)Nc2cccnc2)cc1Cl | > 4 mM (inactive)
Nc1ncnc(NCc2cccnc2)c1[N+](=O)[O-] | > 4 mM (inactive)
Cc1ccc(C)n1/N=C1\NC(=O)CS1 | > 4 mM (inactive)
O=C(O)c1ccc(-n2cccn2)cc1 | > 4 mM (inactive)
NC(=O)C1CCN(Cc2ccccc2)CC1 | > 4 mM (inactive)
Nc1nc(-c2ccncc2)cs1 | > 4 mM (inactive)
CCSc1nnc(-c2ccccc2N)c(=O)[nH]1 | > 4 mM (inactive)
O=C(NN1C(=O)C2C3C=CC(C3)C2C1=O)C1CC=CCC1 (stereo unspecified) | > 4 mM (inactive)
Nc1ncnc2c1ncn2C1C[C@H](O)[C@@H](CO)O1 (stereo partly specified) | > 4 mM (inactive)
O=c1[nH]oc2ccccc12 | > 4 mM (inactive)
CC(=O)Nc1ccc2c(c1)CCCC2=O | > 4 mM (inactive)
O=c1[nH]c2sc3c(c2c2ncnn12)CCCC3 | > 4 mM (inactive)
